{"source": "paper PMC8631057", "about": "(Antiviral research, 2021)", "key": {"[1]": {"tested_on": "rCedV-Luc", "test": "microbe, parasite or virus in culture", "format": "cell-based", "conditions": "Cedar virus, Vero C1008, 48 h, read-out: IC50 (95% CI)"}, "[2]": {"tested_on": "NiV-B", "test": "microbe, parasite or virus in culture", "format": "cell-based, Nipah virus", "conditions": "for IC50: read-out: IC50 (95% CI)"}, "[3]": {"tested_on": "rCedV-Luc", "test": "microbe, parasite or virus in culture", "format": "cell-based", "conditions": "read-out: IC50 (95% CI)"}, "[4]": {"tested_on": "CedV F and G", "format": "cell-based"}, "[5]": {"test": "in vitro", "conditions": "human"}, "[6]": {"tested_on": "HeV", "test": "microbe, parasite or virus in culture", "format": "cell-based, Hendra virus", "conditions": "for IC50: read-out: IC50 (95% CI)"}, "[7]": {"tested_on": "HEK 293T cells"}, "[8]": {"tested_on": "Vero E6 cells"}, "[9]": {"tested_on": "Vero 76 cell line", "conditions": "African green monkey"}}, "note": "Read-outs that look alike come from different tables or passages of the source."}
{"compound": "CCOc1ccc(C2c3[nH]c4ccccc4c3CCN2C(=O)C2CCC2)cc1", "note": "(stereo not drawn) [Compound C1, cyclobutyl(1-(4-ethoxyphenyl)-1,3,4,9-tetrahydro-2H-pyrido[3,4-b]indol-2-yl)methanone]", "values": [{"measurement": "IC50", "setting": "[1]", "result": 7.82, "unit": "µM"}, {"measurement": "Selectivity index (SI)", "setting": "[2]", "result": "> 55"}, {"measurement": "IC50", "setting": "[2]; Henipavirus nipahense, Vero 76, 48 h", "result": 1.83, "unit": "µM"}, {"measurement": "IC50", "setting": "[3]; Cedar virus, HEK-293T, 48 h", "result": 3.06, "unit": "µM"}, {"measurement": "Inhibition of cell-cell membrane fusion activity", "setting": "[4]", "result": "did not inhibit cell-cell membrane fusion activity"}, {"measurement": "CC50", "setting": "[5]", "result": "> 100", "unit": "µM"}, {"measurement": "Selectivity index (SI)", "setting": "[6]", "result": "> 10"}, {"measurement": "IC50", "setting": "[6]; Henipavirus hendraense, Vero 76, 48 h", "result": 9.87, "unit": "µM"}]}
{"compound": "COc1ccc(Nc2nc(-c3nnn(-c4ccc(Br)cc4F)c3C)ns2)cc1", "note": "[Z, 3-(1-(4-bromo-2-fluorophenyl)-5-methyl-1H-1,2,3-triazol-4-yl)-N-(4-methoxyphenyl)-1,2,4-thiadiazol-5-amine]", "values": [{"measurement": "IC50", "setting": "[1]", "result": 0.41, "unit": "µM"}, {"measurement": "IC50", "setting": "[3]; Cedar virus, HEK-293T, 48 h", "result": 0.13, "unit": "µM"}, {"measurement": "CC50", "setting": "[5]", "result": "> 100", "unit": "µM"}]}
{"compound": "(1-(6-(cyclopropylamino)pyrimidin-4-yl)piperidin-4-yl)-N-(2-(thiophen-2-yl)ethyl)propenamide [Compound A3]", "values": [{"measurement": "IC50", "setting": "[3]", "result": "~0.3", "unit": "µM"}, {"measurement": "CC50", "setting": "[7]", "result": "> 100", "unit": "µM"}, {"measurement": "CC50", "setting": "[8]", "result": "> 100", "unit": "µM"}]}
{"compound": "cyclobutyl(1-(4-ethoxyphenyl)-1,3,4,9-tetrahydro-2H-pyrido[3,4-b]indol-2-yl)methanone [Compound F1]", "values": [{"measurement": "IC50", "setting": "[2]", "result": 4.15, "unit": "µM"}, {"measurement": "Cytotoxicity (in words)", "setting": "[7]", "result": "mild toxicity"}, {"measurement": "CC50", "setting": "[7]; human", "result": 85.8, "unit": "µM"}, {"measurement": "CC50", "setting": "[8]; African green monkey", "result": "> 100", "unit": "µM"}, {"measurement": "Inhibition of cell-cell membrane fusion activity", "setting": "[4]", "result": "did not inhibit cell-cell membrane fusion activity"}, {"measurement": "CC50", "setting": "[9]", "result": "> 100", "unit": "µM"}, {"measurement": "IC50", "setting": "[6]", "result": 19.6, "unit": "µM"}]}
